Molecules are shown by their SMILES.

This is an account of results in US11129807B2, “Methods of treating schizophrenia” (Sunovion Pharmaceuticals Inc., priority 2017, dated 2021).

Experiment [1] concerns PCP-Induced Hyperactivity Responses in Mice. The experiment is described as follows: PCP-induced hyperactivity (open field) in mice.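 Also: plus means significant inhibition of PCP hyperactivity at P below 0.05 and minus means none.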 Conditions: male C57Bl/6J mice, vs. vehicle + PCP. It counts as in vivo. How it is done:
(§1) Anti-psychotic like activity of the compounds was evaluated in mice using the PCP hyperactivity and Pre-Pulse Inhibition (PPI) models of schizophrenia.
(§2) Methods: Animals: Male C57Bl/6J mice from Jackson Laboratories (Bar Harbor, Me.) were used. Upon receipt, mice were assigned unique identification numbers (tail marked) and were group housed with 4 mice per cage in OptiMICE ventilated cages. All animals remained housed in groups of four during the remainder of the study. All mice were acclimated to the colony room for at least two weeks prior to testing. During the period of acclimation, mice were examined on a regular basis, handled, and weighed to assure adequate health and suitability. Animals were maintained on a 12/12 light/dark cycle. The room temperature was maintained between 20 and 23° C. with a relative humidity maintained between 30% and 70%. Chow and water were provided ad libitum for the duration of the study. In each test, animals were randomly assigned across treatment groups.
The analysis was configured to divide the open field into a center and periphery zone. Distance traveled was measured from horizontal beam breaks as the mouse moved whereas rearing activity was measured from vertical beam breaks.
Mice were injected with vehicle, test compound, or clozapine (1 mg/kg; i.p) and placed in the OF chambers for 30 min measurement of baseline activity. Mice were then injected with either water or PCP (5 mg/kg; i.p) and placed back in the OF chambers for a 60-minute session. At the end of each OF test session the OF chambers were thoroughly cleaned.

The subject of experiment [2] is Pre-pulse Inhibition (PPI) in Mice. Put plainly: Pre-pulse inhibition (PPI) of startle in mice.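 Also: plus grades count prepulse intensities with significant PPI increase at P below 0.05 and minus means no change.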 Format: in vivo. Conditions: 30 min prior to PPI test, male C57Bl/6J mice, vs. vehicle. How it is done:
as §1, §2
Prepulse Inhibition of Startle: The acoustic startle is an unconditioned reflex response to an external auditory stimulus. Prepulse inhibition of startle (PPI) refers to the reduction in the startle response caused by the presentation of a low-intensity auditory stimulus prior to the startle stimulus. The PPI paradigm is used for the study of schizophrenia and antipsychotic action due to the similarities between the results from human and rodent studies. […] Various psychotomimetic drugs such as PCP can disrupt PPI. In mice, antipsychotic drugs such as clozapine can reverse the disruption of PPI induced by PCP.
Mice were placed in the PPI chambers (Med Associates) for a 5 min session of white noise (70 dB) habituation. After the habituation period the test session was initiated. The session started with a habituation block of 6 presentations of the startle stimulus alone, followed by 10 PPI blocks, each of which consisted of 6 different types of trials. Trial types were: ‘null’ (no stimuli), ‘startle’ (120 dB), ‘startle plus prepulse’ (4, 8 and 12 dB over background noise, i.e., 74, 78 or 82 dB) and ‘prepulse’ (82 dB). Trial types were presented in a random order within each block. Each trial started with a 50 ms stimulus-free period during which baseline movements were recorded. This was followed by a subsequent 20 ms period during which the prepulse stimulus was presented and responses to the prepulse measured. After a further 100 ms period, the startle stimulus was presented for 40 ms and responses recorded for 100 ms from startle onset. Responses were sampled every ms. The inter-trial interval was variable with an average of 15 s (range from 10 to 20 s). In ‘startle’ trials the basic auditory startle response was measured. The basic startle response was calculated as the mean startle response of all ‘startle’ trials (i.e., excluding the first habituation block). In ‘startle plus prepulse’ trials the degree of inhibition of the normal startle was calculated and expressed as a percentage of the basic startle response.
Mice were treated with vehicle, haloperidol (1 mg/kg; i.p) or test compound 30 min prior to PPI test. The PPI enclosures were cleaned following each test.

Setting [3] is: 0.3 mg/kg Compound + PCP (5 mg/kg; i.p).
The mark [4] stands for this setting: 1 mg/kg Compound + PCP (5 mg/kg; i.p).
[5] abbreviates: 3 mg/kg Compound + PCP (5 mg/kg; i.p).
The mark [6] stands for this setting: 10 mg/kg Compound + PCP (5 mg/kg; i.p).
The mark [7] stands for this setting: 30 mg/kg Compound + PCP (5 mg/kg; i.p).
The mark [8] stands for this setting: 100 mg/kg Compound + PCP (5 mg/kg; i.p).

For the compound `CNC[C@@H]1OCCc2sccc21` [Compound 27], the “Total Distance Traveled (cm)” value in experiment [1] (setting [3]) is “−”; in experiment [1] (setting [4]), “−”; in experiment [1] (setting [5]), “−”; in experiment [1] (setting [6]), “+”; in experiment [1] (setting [7]) it was “+”; in experiment [1] (setting [8]) it was “+”. In addition, the “Effect on Pre-pulse Inhibition (PPI)” value in experiment [2] (10 mg/kg), in experiment [2] (30 mg/kg) and in experiment [2] (100 mg/kg) was “−” throughout.
With `CCc1cc2c(s1)CCO[C@@H]2CNC` [Compound 76], the “Total Distance Traveled (cm)” value in experiment [1] (setting [6]) is on record as “−”; in experiment [1] (setting [7]), “−”; in experiment [1] (setting [8]), “+”. In addition, the “Effect on Pre-pulse Inhibition (PPI)” value in experiment [2] (10 mg/kg), in experiment [2] (30 mg/kg) and in experiment [2] (100 mg/kg) was “−” each time.
For `c1cc2c(s1)CCO[C@H]2[C@H]1CCCN1` [Compound 102], the “Total Distance Traveled (cm)” value in experiment [1] (setting [3]) was “−”; in experiment [1] (setting [4]), “+”; in experiment [1] (setting [5]), “+”; in experiment [1] (setting [6]), “+”; in experiment [1] (setting [7]), “+”. Also, the “Effect on Pre-pulse Inhibition (PPI)” value in experiment [2] (3 mg/kg), in experiment [2] (10 mg/kg) and in experiment [2] (30 mg/kg) was “−” in each case.
As for `NCC1OCCc2sccc21` (centres unmarked) [Compound 1], the “Total Distance Traveled (cm)” value in experiment [1] (setting [6]) was “+”; in experiment [1] (setting [7]), “+”; in experiment [1] (setting [8]), “−”. In addition, the results for the “Effect on Pre-pulse Inhibition (PPI)” value in experiment [2] (10 mg/kg), in experiment [2] (30 mg/kg) and in experiment [2] (100 mg/kg) were “−”, “+++” and “+++”, respectively.
As for `NC[C@@H]1OCCc2sccc21` [Compound 2], the “Total Distance Traveled (cm)” value in experiment [1] (setting [6]) is given as “+”; in experiment [1] (setting [7]) it was “+”; in experiment [1] (setting [8]), “−”. Further, the “Effect on Pre-pulse Inhibition (PPI)” value in experiment [2] (10 mg/kg) is reported as “−”; in experiment [2] (30 mg/kg), “−”; in experiment [2] (100 mg/kg), “+++”.
On to `CNC[C@H]1OCCc2sccc21` [Compound 28], for which the “Total Distance Traveled (cm)” value in experiment [1] (setting [3]), in experiment [1] (setting [4]), in experiment [1] (setting [5]), in experiment [1] (setting [6]), in experiment [1] (setting [7]) and in experiment [1] (setting [8]) was “+” in each case. For the same compound, the results for the “Effect on Pre-pulse Inhibition (PPI)” value in experiment [2] (10 mg/kg), in experiment [2] (30 mg/kg) and in experiment [2] (100 mg/kg) were “−”, “+++” and “+++”, respectively.
In the case of `NC[C@@H]1OCCc2ccsc21` [Compound 127], the “Total Distance Traveled (cm)” value in experiment [1] (setting [3]) is reported as “−”; in experiment [1] (setting [4]), “−”; in experiment [1] (setting [5]), “+”; in experiment [1] (setting [6]), “+”; in experiment [1] (setting [7]), “−”. Besides, the “Effect on Pre-pulse Inhibition (PPI)” value in experiment [2] (3 mg/kg) is given as “+++”; in experiment [2] (10 mg/kg), “−”; in experiment [2] (30 mg/kg), “+++”.
In the case of `CCc1cc2c(s1)CCOC2CNC` (centres unmarked) [Compound 10], the “Total Distance Traveled (cm)” value in experiment [1] (setting [6]), in experiment [1] (setting [7]) and in experiment [1] (setting [8]) was “+” each time. Also, the “Effect on Pre-pulse Inhibition (PPI)” value in experiment [2] (10 mg/kg), in experiment [2] (30 mg/kg) and in experiment [2] (100 mg/kg) was “+++” throughout.
With `CCNC[C@H]1OCCc2ccsc21` [Compound 242], the “Total Distance Traveled (cm)” value in experiment [1] (setting [3]) was “−”; in experiment [1] (setting [4]), “+”; in experiment [1] (setting [5]), “+”; in experiment [1] (setting [6]) it was “+”; in experiment [1] (setting [7]), “+”. Besides, the “Effect on Pre-pulse Inhibition (PPI)” value in experiment [2] (3 mg/kg), in experiment [2] (10 mg/kg) and in experiment [2] (30 mg/kg) was “−” throughout.
Consider `Cc1csc2c1CCO[C@@H]2CN` [Compound 170], for which the “Total Distance Traveled (cm)” value in experiment [1] (setting [3]), in experiment [1] (setting [4]), in experiment [1] (setting [5]), in experiment [1] (setting [6]) and in experiment [1] (setting [7]) was “−” throughout. For the same compound, the entries for the “Effect on Pre-pulse Inhibition (PPI)” value in experiment [2] (3 mg/kg), in experiment [2] (10 mg/kg) and in experiment [2] (30 mg/kg) were “−”, “+++” and “+++”, respectively.
On to `NC[C@H]1OCCc2sccc21` [Compound 3], for which the “Total Distance Traveled (cm)” value in experiment [1] (setting [6]), in experiment [1] (setting [7]) and in experiment [1] (setting [8]) was “−” throughout. The “Effect on Pre-pulse Inhibition (PPI)” value is “+++” in experiment [2] (10 mg/kg), “+++” in experiment [2] (30 mg/kg) and “−” in experiment [2] (100 mg/kg).
`[2H]C([2H])([2H])NC[C@H]1OCCc2sccc21` [Compound 158]: the “Total Distance Traveled (cm)” value in experiment [1] (setting [4]), in experiment [1] (setting [5]), in experiment [1] (setting [6]), in experiment [1] (setting [7]) and in experiment [1] (setting [8]) was “+” each time. Besides, the “Effect on Pre-pulse Inhibition (PPI)” value was “−” in experiment [2] (3 mg/kg), “−” in experiment [2] (10 mg/kg), “−” in experiment [2] (30 mg/kg) and “+++” in experiment [2] (100 mg/kg).
